Earlier results, collected in patent US20190134140A1, “ORALLY ADMINISTERED COMPOSITION FOR TREATING CYSTIC FIBROSIS, COPD, ASTHMA AND OTHER INFLAMMATORY CONDITIONS” (priority 2017, published 2019).
Where two headings read alike, the source gives them in different places.

Experiments:
dF508 = dF508 (Homo sapiens, UniProt P13569, DEL508-508)
Sequence of dF508 (P13569 with tags, fused parts or gaps DEL508-508): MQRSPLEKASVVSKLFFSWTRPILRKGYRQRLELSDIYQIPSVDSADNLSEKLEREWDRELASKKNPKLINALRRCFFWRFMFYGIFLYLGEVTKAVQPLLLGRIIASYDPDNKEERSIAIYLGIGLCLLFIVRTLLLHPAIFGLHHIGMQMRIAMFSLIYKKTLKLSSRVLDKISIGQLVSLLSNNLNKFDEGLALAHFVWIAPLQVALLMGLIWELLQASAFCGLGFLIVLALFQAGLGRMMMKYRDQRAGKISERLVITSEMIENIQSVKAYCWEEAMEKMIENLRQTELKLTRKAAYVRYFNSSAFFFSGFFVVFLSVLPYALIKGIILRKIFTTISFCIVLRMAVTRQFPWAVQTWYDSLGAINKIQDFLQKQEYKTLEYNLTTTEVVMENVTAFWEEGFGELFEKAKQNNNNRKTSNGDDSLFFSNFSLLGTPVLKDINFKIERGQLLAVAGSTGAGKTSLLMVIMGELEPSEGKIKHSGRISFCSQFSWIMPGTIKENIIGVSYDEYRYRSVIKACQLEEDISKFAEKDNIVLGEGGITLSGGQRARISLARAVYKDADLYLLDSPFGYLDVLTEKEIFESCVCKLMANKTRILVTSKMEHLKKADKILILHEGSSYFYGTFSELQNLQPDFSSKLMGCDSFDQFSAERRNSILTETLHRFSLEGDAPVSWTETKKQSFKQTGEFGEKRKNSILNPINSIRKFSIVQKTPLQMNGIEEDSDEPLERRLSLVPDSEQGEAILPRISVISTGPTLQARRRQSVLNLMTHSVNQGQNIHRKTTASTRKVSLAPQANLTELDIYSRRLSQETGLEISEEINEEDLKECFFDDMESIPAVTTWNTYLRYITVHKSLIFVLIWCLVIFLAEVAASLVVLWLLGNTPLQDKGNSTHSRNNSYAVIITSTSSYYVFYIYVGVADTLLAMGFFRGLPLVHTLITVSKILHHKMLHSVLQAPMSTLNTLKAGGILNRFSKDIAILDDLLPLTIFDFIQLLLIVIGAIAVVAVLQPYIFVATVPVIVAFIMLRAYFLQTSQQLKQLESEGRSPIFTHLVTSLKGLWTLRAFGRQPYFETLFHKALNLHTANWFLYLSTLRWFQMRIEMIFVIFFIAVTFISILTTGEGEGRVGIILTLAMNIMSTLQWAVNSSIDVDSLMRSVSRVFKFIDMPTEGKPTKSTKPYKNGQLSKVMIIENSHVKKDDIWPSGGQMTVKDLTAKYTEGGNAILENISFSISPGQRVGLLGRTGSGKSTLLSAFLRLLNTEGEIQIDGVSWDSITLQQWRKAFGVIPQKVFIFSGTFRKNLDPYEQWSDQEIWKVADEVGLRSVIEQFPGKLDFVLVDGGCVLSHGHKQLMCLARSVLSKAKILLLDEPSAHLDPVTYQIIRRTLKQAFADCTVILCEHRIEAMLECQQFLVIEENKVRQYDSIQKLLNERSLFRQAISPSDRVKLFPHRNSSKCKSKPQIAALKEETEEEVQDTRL

Structure (SMILES) | ciliary beat frequency (ciliary beat frequency) | activation of dF508 (dF508) | enhancement in permeability (combined with curcumin) | enhancement in permeability (combined with piperine) | enhancement in permeability (combined with quercetin)
O=c1c(O)c(-c2ccc(O)c(O)c2)oc2cc(O)cc(O)c12 [Quercetin] | increase ciliary beat frequency | activate dF508 |  |  | 
Oc1ccc(C=Cc2cc(O)cc(O)c2)cc1 [Resveratrol] |  |  | 300% | 350% | 310%
